Assays:
Caco-2 cells [1] = test: Caco-2 cell viability with ascorbic acid (fluorescent probes); format: cell-based; settings: 0, 5, 25, or 50 mM ascorbic acid for 240 min; cells propagated 14 days
Experimental: FIG. 5 depicts a graph illustrating the viability over time of cells incubated with various solutions. Caco-2 cells were propagated in T-75 tissue culture flasks for 14 days. The cells were then incubated with either 0, 5, 25, or 50 mM ascorbic acid for 240 min. Fluorescent probes were used to determine viability.
Experiments were performed to test the impact of various ascorbic acid concentrations on cell viability. Caco-2 cells were propagated in T-75 tissue culture flasks for 14 days. The cells were then incubated with either 0, 5, 25, or 50 mM ascorbic acid for 240 min. Fluorescent probes were used to determine viability.

Caco-2 cells [2] = test: Caco-2 in vitro magnesium transport assay; settings: for Magnesium transport with increasing treatment concentration: 0, 5, 10, 15, 20, and 25 mg Mg (ascorbate or chloride)
Experimental: Caco-2 cells were used to model in vitro magnesium absorption of intestinal cells. […] Six different solutions, with magnesium and varying ratios of ascorbate were tested. Each solution comprised 20 mM of magnesium. Cells were exposed to one of the six solutions for 4 hours, then the basal media was analyzed for magnesium, using a colorimetric test.
Various magnesium solutions were tested to determine their impact on magnesium transport: magnesium ascorbate, magnesium bisglycinate, magnesium orotate, magnesium threonate, and magnesium malate (trihydrate and hexahydrate; abbreviated MgM3H20 or MgM6H20 respectively in FIG. 2). […] (see FIG. 2)
Six different treatment concentrations were tested: 0, 5, 10, 15, 20, and 25 mg Mg (ascorbate or chloride).

| Compound | Cell viability (Caco-2 cells [1]) | Magnesium transport with increasing treatment concentration (Caco-2 cells [2]; FIG. 3) | Magnesium transport compared with magnesium chloride at any given concentration tested (Caco-2 cells [2]; 0, 5, 10, 15, 20, and 25 mg Mg, FIG. 3) | Magnesium transport rate compared with other magnesium solutions (Caco-2 cells [2]; vs magnesium bisglycinate, orotate, threonate, malate (trihydrate and hexahydrate), FIG. 2) |
| --- | --- | --- | --- | --- |
| O=C1O[C@H]([C@@H](O)CO)C(O)=C1O [ascorbic acid] | no conclusive evidence that ascorbic acid kills the cells |  |  |  |
| [Cl-].[Cl-].[Mg+2] [magnesium chloride, reference compound] |  | increased magnesium transport, in a linear fashion |  |  |
| magnesium ascorbate |  | significant jump in magnesium transport between the 10 mM treatment and the 15 mM treatment | greater magnesium transport than magnesium chloride | statistically significant higher transport rate than any other magnesium solution tested |

From patent US12496289B2, “Methods of increasing magnesium bioavailability and absorption” (Balchem Corporation, priority 2020, dated 2025)
